Laboratory results taken from ChEMBL document CHEMBL1149539, “Design, synthesis, and biological activity of folate receptor-targeted prodrugs of thiolate histone deacetylase inhibitors” (Bioorg Med Chem Lett, 2007).
Activity calls are given as the source filed them. No cut-off for these calls is given here.

Tests used:
[1] = target: Histone deacetylase; experiment: Inhibition of HDAC in HeLa cells in presence of DTT after 30 mins by fluorescent activity assay; format: cell-based, Homo sapiens
[2] = target: Histone deacetylase; experiment: Inhibition of HDAC in HeLa cells after 30 mins by fluorescent activity assay; format: cell-based, Homo sapiens
[3] = test system: MCF7; experiment: Increase in accumulation of acetylated histone H4 in human MCF7 cells after 14 hrs by Western blot analysis; format: functional, cell-based
[4] = test system: MCF7; experiment: Increase in accumulation of acetylated histone H4 in human MCF7 cells in presence of 100 uM folic acid after 14 hrs by Western blot analysis; format: functional, cell-based
[5] = test system: MCF7; experiment: Growth inhibition of human MCF7 cells after 72 hrs by Alamar Blue assay; format: functional, cell-based

IC50 [1]	IC50 [2]	Compound	Activity [3]	Activity [4]	Activity [5]
3 µM	–	NC1=NC(=O)C2N=C(CNc3ccc(C(=O)N[C@@H](CCC(=O)NCCOCCOCCSSCCCCCCC(=O)Nc4ncc(-c5ccccc5)s4)C(=O)O)cc3)C=NC2=N1 (some centres not stated)	–	–	–
9 µM	–	NC1=NC(=O)C2N=C(CNc3ccc(C(=O)N[C@@H](CCC(=O)NCCCCCCSSCCCCCCNC(=O)CC[C@H](NC(=O)c4ccc(NCC5=NC6C(=O)N=C(N)N=C6N=C5)cc4)C(=O)O)C(=O)O)cc3)C=NC2=N1 (some centres not stated)	–	–	–
–	21 µM	NC1=NC(=O)C2N=C(CNc3ccc(C(=O)N[C@@H](CCC(=O)NCCCCCCS)C(=O)O)cc3)C=NC2=N1 (some centres not stated)	–	–	–
0.27 µM	–	NC1=NC(=O)C2N=C(CNc3ccc(C(=O)N[C@@H](CCC(=O)NCCSSCCCCCCC(=O)Nc4ncc(-c5ccccc5)s4)C(=O)O)cc3)C=NC2=N1 (some centres not stated)	Active	inactive	Dose-dependent effect
